According to patent US20200392158A1, “INHIBITORS OF LEUCINE RICH REPEAT KINASE 2” (GLAXOSMITHKLINE INTELLECTUAL PROPERTY DEVELOPMENT LIMITED, priority 2017, published 2020):

How the values were obtained:
[1] = target: T1, LRRK2 kinase in SH-SY5Y cells over-expressing recombinant full length LRRK2 (Homo sapiens, UniProt Q5S007); experiment: Recombinant cellular LRRK2 AlphaScreen assay (LRRK2 Ser935 phosphorylation); type: cell-based; details: 60 min
T1 construct: A BacMam virus expressing full length recombinant LRRK2 was purchased from Invitrogen; host or cells: SH-SY5Y human neuroblastoma cells transduced with BacMam LRRK2 virus
Summary of the method: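 SH-SY5Y cells transduced with BacMam full-length LRRK2 (MOI 50) for 24 h, then treated 60 min at 37 °C with compound (11-point 1:4 series, top 10 uM, 0.1% DMSO). Lysates probed by AlphaScreen for pSer935 vs total LRRK2; values fitted to a sigmoidal dose-response model.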

[2] = target: T2, full length G2019 human LRRK2 (Homo sapiens, UniProt Q5S007, R50H); experiment: Full length G2019 human LRRK2 inhibition mass spectrometry assay; type: biochemical; details: LRRKtide to phospho-LRRKtide conversion, RapidFire MS, 2 mM ATP
T2 construct: made in house; host or cells: HEK293 6E cells transduced with BacMam virus (virus generated in Sf9 cells)
Summary of the method: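 Purified full-length Flag-tagged G2019 LRRK2, ~25 nM, with 25 μM LRRKtide and 2 mM ATP in 50 mM Hepes pH 7.2, 10 mM MgCl2, 150 mM NaCl, 1 h at room temperature. Quenched with formic acid; phospho- and unphosphorylated LRRKtide measured by RapidFire MS. pIC50 from 4-parameter fit of % conversion, 11 points, top 100 μM.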

T1 sequence (Q5S007 whole entry): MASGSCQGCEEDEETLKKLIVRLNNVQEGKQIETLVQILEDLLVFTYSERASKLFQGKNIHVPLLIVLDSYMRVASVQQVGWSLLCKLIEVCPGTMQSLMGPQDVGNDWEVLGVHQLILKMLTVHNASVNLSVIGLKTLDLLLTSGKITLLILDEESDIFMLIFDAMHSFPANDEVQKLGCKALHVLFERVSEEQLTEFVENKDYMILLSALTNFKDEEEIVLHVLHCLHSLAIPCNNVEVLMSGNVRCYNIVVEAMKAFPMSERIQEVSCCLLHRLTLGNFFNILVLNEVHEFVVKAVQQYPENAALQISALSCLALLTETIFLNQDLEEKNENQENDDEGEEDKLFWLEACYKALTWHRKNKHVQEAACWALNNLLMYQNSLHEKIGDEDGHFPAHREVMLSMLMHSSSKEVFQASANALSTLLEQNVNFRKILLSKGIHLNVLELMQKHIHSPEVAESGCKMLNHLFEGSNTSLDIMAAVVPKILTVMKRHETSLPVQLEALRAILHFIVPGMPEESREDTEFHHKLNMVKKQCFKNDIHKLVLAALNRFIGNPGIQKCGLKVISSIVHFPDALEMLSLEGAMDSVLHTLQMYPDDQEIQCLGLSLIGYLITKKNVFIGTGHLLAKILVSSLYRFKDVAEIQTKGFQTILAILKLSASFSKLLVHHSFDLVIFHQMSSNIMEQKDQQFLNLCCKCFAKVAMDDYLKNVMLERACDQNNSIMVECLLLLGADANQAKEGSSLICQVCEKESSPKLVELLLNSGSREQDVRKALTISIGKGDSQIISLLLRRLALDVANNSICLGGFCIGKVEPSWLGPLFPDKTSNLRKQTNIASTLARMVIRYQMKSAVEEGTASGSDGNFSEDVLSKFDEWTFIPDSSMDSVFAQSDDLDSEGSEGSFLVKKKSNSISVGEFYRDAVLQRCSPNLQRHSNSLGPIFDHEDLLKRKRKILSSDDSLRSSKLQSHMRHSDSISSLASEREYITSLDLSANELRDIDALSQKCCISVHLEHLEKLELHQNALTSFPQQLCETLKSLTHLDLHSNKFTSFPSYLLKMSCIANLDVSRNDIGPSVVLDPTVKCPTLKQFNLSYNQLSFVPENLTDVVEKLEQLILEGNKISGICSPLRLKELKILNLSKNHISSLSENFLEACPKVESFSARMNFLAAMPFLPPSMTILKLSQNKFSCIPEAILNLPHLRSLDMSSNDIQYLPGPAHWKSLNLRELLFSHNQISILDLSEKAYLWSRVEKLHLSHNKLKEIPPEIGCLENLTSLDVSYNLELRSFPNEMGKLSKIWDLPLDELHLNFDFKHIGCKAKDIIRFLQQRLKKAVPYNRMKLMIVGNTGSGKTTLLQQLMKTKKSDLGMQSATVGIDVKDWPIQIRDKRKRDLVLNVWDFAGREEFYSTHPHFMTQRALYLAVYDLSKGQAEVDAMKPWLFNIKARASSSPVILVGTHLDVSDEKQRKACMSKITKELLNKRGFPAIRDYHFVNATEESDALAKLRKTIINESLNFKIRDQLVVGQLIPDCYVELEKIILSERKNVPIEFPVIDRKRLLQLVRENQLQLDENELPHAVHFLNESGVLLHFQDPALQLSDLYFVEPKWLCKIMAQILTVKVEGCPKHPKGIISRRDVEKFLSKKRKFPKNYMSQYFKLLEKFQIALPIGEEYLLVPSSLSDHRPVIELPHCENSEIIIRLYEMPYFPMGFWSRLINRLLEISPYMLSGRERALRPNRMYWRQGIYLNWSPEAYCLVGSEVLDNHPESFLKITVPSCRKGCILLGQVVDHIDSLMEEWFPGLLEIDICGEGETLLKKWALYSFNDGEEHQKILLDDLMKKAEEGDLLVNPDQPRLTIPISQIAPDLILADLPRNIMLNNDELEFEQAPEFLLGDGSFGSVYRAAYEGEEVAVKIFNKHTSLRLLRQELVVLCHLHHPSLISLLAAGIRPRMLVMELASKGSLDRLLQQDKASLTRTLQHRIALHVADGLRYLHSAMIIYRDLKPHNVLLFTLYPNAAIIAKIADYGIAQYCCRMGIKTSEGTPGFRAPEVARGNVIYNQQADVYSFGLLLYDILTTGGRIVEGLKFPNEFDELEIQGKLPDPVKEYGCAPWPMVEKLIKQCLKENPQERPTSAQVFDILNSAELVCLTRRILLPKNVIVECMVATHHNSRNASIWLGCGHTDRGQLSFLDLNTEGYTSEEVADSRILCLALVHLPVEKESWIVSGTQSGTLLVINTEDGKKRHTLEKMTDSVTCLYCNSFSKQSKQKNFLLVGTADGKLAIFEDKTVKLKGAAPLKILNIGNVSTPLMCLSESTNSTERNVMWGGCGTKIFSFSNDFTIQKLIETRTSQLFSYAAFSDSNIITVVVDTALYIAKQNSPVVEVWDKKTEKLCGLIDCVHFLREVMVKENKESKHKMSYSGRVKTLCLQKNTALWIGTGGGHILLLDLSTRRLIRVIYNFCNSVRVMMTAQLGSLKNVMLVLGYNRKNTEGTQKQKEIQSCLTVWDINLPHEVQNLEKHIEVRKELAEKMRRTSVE
T2 sequence (Q5S007 with tags, fused parts or gaps R50H): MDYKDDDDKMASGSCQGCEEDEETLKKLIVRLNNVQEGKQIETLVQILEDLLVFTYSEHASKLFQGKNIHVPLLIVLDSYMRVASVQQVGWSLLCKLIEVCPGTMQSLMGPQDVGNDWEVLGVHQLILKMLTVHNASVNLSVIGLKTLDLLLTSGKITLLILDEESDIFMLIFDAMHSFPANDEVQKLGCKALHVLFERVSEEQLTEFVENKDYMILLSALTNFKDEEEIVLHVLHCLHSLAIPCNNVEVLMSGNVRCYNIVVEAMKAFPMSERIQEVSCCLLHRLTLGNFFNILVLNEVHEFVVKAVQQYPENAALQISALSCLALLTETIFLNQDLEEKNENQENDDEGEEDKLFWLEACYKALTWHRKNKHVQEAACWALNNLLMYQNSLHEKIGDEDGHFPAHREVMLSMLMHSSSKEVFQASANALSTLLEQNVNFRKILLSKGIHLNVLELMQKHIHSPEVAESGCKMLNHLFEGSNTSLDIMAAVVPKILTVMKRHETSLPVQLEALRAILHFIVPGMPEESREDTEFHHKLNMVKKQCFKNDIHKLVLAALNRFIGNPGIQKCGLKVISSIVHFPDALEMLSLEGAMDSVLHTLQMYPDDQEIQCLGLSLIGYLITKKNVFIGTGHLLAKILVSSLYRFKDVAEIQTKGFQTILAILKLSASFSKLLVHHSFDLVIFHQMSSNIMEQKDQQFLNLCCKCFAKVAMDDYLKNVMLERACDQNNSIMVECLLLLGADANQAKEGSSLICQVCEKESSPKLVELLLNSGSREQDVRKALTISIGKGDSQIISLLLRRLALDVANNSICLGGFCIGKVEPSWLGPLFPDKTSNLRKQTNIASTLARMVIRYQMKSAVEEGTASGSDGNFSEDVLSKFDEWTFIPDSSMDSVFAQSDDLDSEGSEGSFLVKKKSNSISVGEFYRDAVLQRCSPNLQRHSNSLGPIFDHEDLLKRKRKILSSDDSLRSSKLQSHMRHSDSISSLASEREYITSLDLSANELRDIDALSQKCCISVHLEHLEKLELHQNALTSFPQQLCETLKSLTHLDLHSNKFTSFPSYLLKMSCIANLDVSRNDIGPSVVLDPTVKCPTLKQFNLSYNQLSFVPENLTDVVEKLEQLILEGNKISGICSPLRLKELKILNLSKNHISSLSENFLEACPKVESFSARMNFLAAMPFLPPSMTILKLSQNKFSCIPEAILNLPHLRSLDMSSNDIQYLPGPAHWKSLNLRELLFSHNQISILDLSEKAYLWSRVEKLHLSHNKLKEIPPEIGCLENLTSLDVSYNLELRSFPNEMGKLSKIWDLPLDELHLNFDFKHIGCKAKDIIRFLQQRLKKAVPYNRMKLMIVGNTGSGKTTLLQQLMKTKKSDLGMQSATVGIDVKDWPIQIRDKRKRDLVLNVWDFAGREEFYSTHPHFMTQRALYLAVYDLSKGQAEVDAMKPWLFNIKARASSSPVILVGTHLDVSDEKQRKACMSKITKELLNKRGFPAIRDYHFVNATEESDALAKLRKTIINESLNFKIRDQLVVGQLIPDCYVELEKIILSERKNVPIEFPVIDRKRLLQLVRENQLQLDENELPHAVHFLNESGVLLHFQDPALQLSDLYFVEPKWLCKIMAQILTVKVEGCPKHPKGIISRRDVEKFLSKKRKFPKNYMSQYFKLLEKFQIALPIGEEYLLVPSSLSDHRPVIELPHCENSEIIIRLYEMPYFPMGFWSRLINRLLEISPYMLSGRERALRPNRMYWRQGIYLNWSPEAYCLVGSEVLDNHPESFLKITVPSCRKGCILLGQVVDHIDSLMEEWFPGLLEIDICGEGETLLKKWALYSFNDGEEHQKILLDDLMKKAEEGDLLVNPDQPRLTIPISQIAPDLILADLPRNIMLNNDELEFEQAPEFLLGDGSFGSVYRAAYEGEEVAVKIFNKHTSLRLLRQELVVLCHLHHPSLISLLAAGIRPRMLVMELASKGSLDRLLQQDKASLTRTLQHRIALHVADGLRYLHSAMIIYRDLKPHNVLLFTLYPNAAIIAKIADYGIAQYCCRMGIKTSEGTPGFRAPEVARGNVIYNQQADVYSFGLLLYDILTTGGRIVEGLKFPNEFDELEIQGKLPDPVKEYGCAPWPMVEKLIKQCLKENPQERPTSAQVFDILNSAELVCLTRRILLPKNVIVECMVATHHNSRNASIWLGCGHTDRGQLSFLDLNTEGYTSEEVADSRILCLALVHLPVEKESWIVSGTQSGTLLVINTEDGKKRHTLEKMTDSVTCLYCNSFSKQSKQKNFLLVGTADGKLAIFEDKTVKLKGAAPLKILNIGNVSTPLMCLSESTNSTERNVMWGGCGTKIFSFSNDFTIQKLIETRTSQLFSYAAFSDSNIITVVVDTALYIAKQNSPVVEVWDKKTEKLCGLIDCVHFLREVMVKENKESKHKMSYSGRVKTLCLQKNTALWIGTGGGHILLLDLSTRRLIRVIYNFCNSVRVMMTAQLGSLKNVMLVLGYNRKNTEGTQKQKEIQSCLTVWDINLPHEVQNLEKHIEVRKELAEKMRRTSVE

Compound | IC50 [1] [nM] | IC50 [2] [nM]
Clc1cnc2nc1NCCCOc1nn(C3CCOC3)c(Cl)c1N2 (single isomer, unassigned) [E145, 4,14-Dichloro-5-(oxolan-3-yl)-8-oxa-2,5,6,12, 16,17-hexaaza tricyclo[11.3.1.0^3,7]heptadeca-1(16),3,6,13(17), 14-pentaene] | ≤ 100 | ≤ 100
Cc1c2c(nn1C(C)C1CCOCC1)OCCC(C)Nc1nc(ncc1Cl)N2 (single isomer, unassigned) [E183, 14-Chloro-4,11-dimethyl-5-[1-(oxan-4-yl)ethyl]-8-oxa-2,5,6,12,16,17-hexaazatricyclo[11.3.1.0^3,7]heptadeca-1(16),3,6,13(17),14-pentaene] | ≤ 100 | ≤ 100
Cc1c2c(nn1C(C)C1CCOCC1)OCCCNc1nc(ncc1Cl)N2 (single isomer, unassigned) [E186, 14-Chloro-4-methyl-5-[1-(oxan-4-yl)ethyl]-8-oxa-2,5,6,12,16,17-hexaazatricyclo[11.3.1.0^3,7]heptadeca-1(16), 3,6,13(17),14-pentaene] | ≤ 100 | ≤ 100
Cc1c2c(nn1C1CCOCC1)OCCC(C(F)(F)F)Nc1nc(ncc1Cl)N2 (single isomer, unassigned) [E192, 14-Chloro-4-methyl-5-(oxan-4-yl)-11-(trifluoromethyl)-8-oxa-2,5,6,12,16,17-hexaazatricyclo[11.3.1.0^3,7] heptadeca-1(16),3,6,13(17),14-pentaene] | ≤ 100 | ≤ 100
COC1CNc2nc(ncc2Cl)Nc2c(nn(C3CC(C)OC(C)C3)c2C)OC1 (single isomer, unassigned) [E198, 14-Chloro-5-(2,6-dimethyloxan-4-yl)-10-methoxy-4-methyl-8-oxa-2,5,6,12,16,17-hexaazatricyclo[11.3.1.0^3,7] heptadeca-1(16),3,6,13(17),14-pentaene] | ≤ 100 | ≤ 100
Cc1c2c(nn1CCN1C[C@H]3C[C@@H]1CO3)OCCC(C)Nc1nc(ncc1Cl)N2 (single isomer, unassigned) [E208] | ≤ 100 | ≤ 100
Cc1c2c(nn1CCN1CCOCC1)OCCC(C)Nc1nc(ncc1Cl)N2 (single isomer, unassigned) [E213, 14-Chloro-4,11-dimethyl-5-[2-(morpholin-4-yl)ethyl]-8-oxa-2,5,6,12,16,17-hexaazatricyclo[11.3.1.0^3,7] heptadeca-1(16),3,6,13(17),14-pentaene] | ≤ 100 | ≤ 100
Cc1c2c(nn1CCN1CCC(F)(F)C1)OCCC(C)Nc1nc(ncc1Cl)N2 (single isomer, unassigned) [E215, 14-Chloro-5-[2-(3,3-difluoropyrrolidin-1-yl)ethyl]-4,11-dimethyl-8-oxa-2,5,6,12,16,17-hexaazatricyclo [11.3.1.0^3,7]heptadeca-1(16),3,6,13(17),14-pentaene] | ≤ 100 | ≤ 100
Cc1c2c(nn1CCN1CCC(F)C1)OCCC(C)Nc1nc(ncc1Cl)N2 (single isomer, unassigned) [E218, 14-Chloro-5-[2-(3-fluoropyrrolidin-1-yl)ethyl]-4,11-dimethyl-8-oxa-2,5,6,12,16,17-hexaazatricyclo [11.3.1.0^3,7] heptadeca-1(16),3,6,13(17),14-pentaene] | ≤ 100 | ≤ 100
Cc1c2c(nn1C1CC3CCC(C1)O3)OCCCNc1nc(ncc1Cl)N2 (single isomer, unassigned) [E243, 14-Chloro-4-methyl-5-{8-oxabicyclo[3.2.1]octan-3-yl}-8-oxa-2,5,6,12,16,17-hexaazatricyclo[11.3.1.0^3,7] heptadeca-1(16),3,6,13(17),14-pentaene] | ≤ 100 | ≤ 100
COC1CNc2nc(ncc2Cl)Nc2c(nn(C3CC4CCC(C3)O4)c2C)OC1 (single isomer, unassigned) [E245, 14-Chloro-10-methoxy-4-methyl-5-{8-oxabicyclo[3.2.1]octan-3-yl}-8-oxa-2,5,6,12,16,17-hexaazatricyclo [11.3.1.0^3,7]heptadeca-1(16),3,6,13(17),14-pentaene] | ≤ 100 | ≤ 100
Cc1c2c(nn1C1CCC(C)CC1)OCCC(C)Nc1nc(ncc1Cl)N2 (single isomer, unassigned) [E259, 14-Chloro-4,11-dimethyl-5-(4-methylcyclohexyl)-8-oxa-2,5,6,12,16,17-hexaazatricyclo[11.3.1.0^3,7] heptadeca-1(16),3,6,13(17),14-pentaene] | ≤ 100 | ≤ 100
Cc1c2c(nn1CC(C)(C)O)OCCC(C)Nc1nc(ncc1Cl)N2 (single isomer, unassigned) [E265, 1-{14-Chloro-4,11-dimethyl-8-oxa-2,5,6,12,16,17-hexaazatricyclo[11.3.1.0^3,7]heptadeca-1(17),3,6,13,15-pentaen-5-yl}-2-methylpropan-2-ol] | ≤ 100 | ≤ 100
COC1CNc2nc(ncc2Cl)Nc2c(nn(C3COC3)c2C)OC1 (single isomer, unassigned) [E270, 14-Chloro-10-methoxy-4-methyl-5-(oxetan-3-yl)-8-oxa-2,5,6,12,16,17-hexaazatricyclo[11.3.1.0^3,7]heptadeca-1(16),3,6,13(17),14-pentaene] | ≤ 100 | ≤ 100
COC1CNc2nc(ncc2Cl)Nc2c(nn(CC3CCOCC3)c2C)OC1 (single isomer, unassigned) [E274, 14-Chloro-10-methoxy-4-methyl-5-(oxan-4-ylmethyl)-8-oxa-2,5,6,12,16,17-hexaazatricyclo[11.3.1.0^3,7] heptadeca-1(16),3,6,13(17),14-pentaene] | ≤ 100 | ≤ 100
COC1CNc2nc(ncc2Cl)Nc2c(nn(C3CCC(C(F)(F)F)CC3)c2C)OC1 (single isomer, unassigned) [E278, 14-Chloro-10-methoxy-4-methyl-5-[4-(trifluoromethyl)cyclohexyl]-8-oxa-2,5,6,12,16,17-hexaazatricyclo [11.3. 1.0^3,7]heptadeca-1(16),3,6,13(17),14-pentaene] | ≤ 100 | ≤ 100
CCOC1CNc2nc(ncc2Cl)Nc2c(nn(C3CCOCC3)c2C)OC1 (single isomer, unassigned) [E287, 14-Chloro-10-ethoxy-4-methyl-5-(oxan-4-yl)-8-oxa-2,5,6,12,16,17-hexaazatricyclo[11.3.1.0^3,7]heptadeca-1(16),3,6,13(17),14-pentaene] | ≤ 100 | ≤ 100
Cc1c2c(nn1C1CCOCC1)OCCC(C)Nc1nc(ncc1C(F)(F)F)N2 (single isomer, unassigned) [E291, 4,11-Dimethyl-5-(oxan-4-yl)-14-(trifluoromethyl) -8-oxa-2,5,6,12,16,17-hexaazatricyclo[11.3.1.0^3,7]heptadeca-1(16),3,6,13(17),14-pentaene] | ≤ 100 | ≤ 100
Cc1c2c(nn1C1CCOCC1)OCCC(C1CC1)Nc1nc(ncc1Cl)N2 (single isomer, unassigned) [E293, 14-Chloro-11-cyclopropyl-4-methyl-5-(oxan-4-yl)-8-oxa-2,5,6,12,16,17-hexaazatricyclo[11.3.1.0^3,7]heptadeca-1(16),3,6,13(17),14-pentaene] | ≤ 100 | ≤ 100
Cc1c2c(nn1C1COCCC1(F)F)OCCCNc1nc(ncc1Cl)N2 (single isomer, unassigned) [E302, 14-Chloro-5-(4,4-difluorooxan-3-yl)-4-methyl-8-oxa-2,5,6,12,16,17-hexaazatricyclo[11.3.1.0^3,7]heptadeca-1(16),3,6,13(17),14-pentaene] | ≤ 100 | ≤ 100
Cc1c2c(nn1C1COCCC1(F)F)OCC[C@@H](C)Nc1nc(ncc1Cl)N2 (single isomer, unassigned) [E305] | ≤ 100 | ≤ 100
Cc1c2c(nn1C1CCCOC1)OCC(C)CNc1nc(ncc1Cl)N2 (single isomer, unassigned) [E306, 14-Chloro-4,10-dimethyl-5-(oxan-3-yl)-8-oxa-2,5,6,12,16,17-hexaazatricyclo[11.3.1.0^3,7]heptadeca-1(16),3,6, 13(17),14-pentaene] | ≤ 100 | ≤ 100
COCC1CCOc2nn(C3CCOCC3F)c(C)c2Nc2ncc(Cl)c(n2)N1 (single isomer, unassigned) [E351, 14-Chloro-5-(3-fluorooxan-4-yl)-11-(methoxymethyl)-4-methyl-8-oxa-2,5,6,12,16,17-hexaazatricyclo [11.3. 1.0^3,7]heptadeca-1(16),3,6,13(17),14-pentaene] | ≤ 100 | ≤ 100
Cc1c2c(nn1C1CCC(N3CCOCC3)C1)OCCCNc1nc(ncc1Cl)N2 (single isomer, unassigned) [E369, 14-Chloro-4-methyl-5-[3-(morpholin-4-yl)cyclopentyl]-8-oxa-2,5,6,12,16,17-hexaazatricyclo[11.3.1.0^3,7] heptadeca-1(16),3,6,13(17),14-pentaene] | ≤ 100 | ≤ 100
Cc1c2c(nn1C1CN(C3COC3)CCC1F)OCC[C@@H](C)Nc1nc(ncc1Cl)N2 (single isomer, unassigned) [E403] | ≤ 100 | ≤ 100
Cc1c2c(nn1C1CCN(C3COC3)CC1(F)F)OCCCNc1nc(ncc1Cl)N2 (single isomer, unassigned) [E406, 14-Chloro-5-[3,3-difluoro-1-(oxetan-3-yl)piperidin-4-yl]-4-methyl-8-oxa-2,5,6,12,16,17-hexaazatricyclo[11.3.1.0^3,7]heptadeca-1(16),3,6,13(17),14-pentaene] | ≤ 100 | ≤ 100
